Like-named read-outs stand apart in the source and are kept apart here.
Assays:
HUVEC cells = assay: CCK-8 cell viability: alleviation of proliferative toxicity of anti-tumor agents on HUVEC cells (Tables 7-1, 7-2); format: cell-based; conditions: for activation at 100 µM: Homo sapiens, 24 h, percentage increase in viable cells vs anti-tumor agent alone, read-out: Response rate % (average)
Summary of the method: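 HUVEC cells were treated with anti-tumor agent (DMSO solvent) alone or combined with NO-NSAID (ethanol or water solvent), and NO-NSAID solvent controls were used for correction. After 24-48 h of culture, viability was read by CCK-8 to derive proliferative toxicity and how much NO-NSAID mitigated it.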

[1] = tested on: hand-foot syndrome induced by anti-tumor agents; assay: Prevention of hand-foot syndrome induced by anti-tumor agents in rats, NO-NSAID ointment on hind paws (Table 2-2); format: in vivo, SD rats; conditions: Rattus norvegicus, topical, read-out: Control rate; for responders at 0.5 %: ointment 0.50% wt; for responders at 1 %: ointment 1% wt; for responders at 2.5 %: ointment 2.50% wt; for responders at 5 %: ointment 5% wt
Summary of the method: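 Female SD rats (8 weeks, ~200 g; 10/group) received anti-tumour agents by daily oral gavage in Cremophor EL:ethanol 1:1 diluted ~3× with PBS. NO-NSAID or blank ointment was applied to hind paws once daily, 4 h restrained, then wiped off. Control rate = blank-group minus treated-group hand-foot syndrome incidence.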

[2] = Afatinib (10 μM), NO-NSAID 100 μM
[3] = Cabozantinib (5 μM), NO-NSAID 100 μM
[4] = Dabrafenib (10 μM), NO-NSAID 100 μM
[5] = Everolimus (5 μM), NO-NSAID 100 μM
[6] = Infigratinib (15 μM), NO-NSAID 100 μM
[7] = Lapatinib (5 μM), NO-NSAID 100 μM
[8] = Lenvatinib (10 μM), NO-NSAID 100 μM
[9] = Olmutinib (10 μM), NO-NSAID 100 μM
[10] = Regorafenib (5 μM), NO-NSAID 100 μM
[11] = Selumetinib (5 μM), NO-NSAID 100 μM
[12] = Sorafenib (5 μM), NO-NSAID 100 μM
[13] = Sunitinib (5 μM), NO-NSAID 100 μM
[14] = 120 h, Sorafenib 80 mg/kg once a day, Days 5
[15] = 432 h, Cabozantinib 50 mg/kg once a day, Days 18
[16] = 432 h, Lenvatinib 100 mg/kg twice a day, Days 18
[17] = 432 h, Nintedanib 110 mg/kg once a day, Days 18
[18] = 432 h, Regorafenib 90 mg/kg once a day, Days 18

COc1ccc2cc(C(C)C(=O)OCCCCO[N+](=O)[O-])ccc2c1 (stereo not drawn) [Compound A5]
NO-NSAID response rate % (average) (HUVEC cells; Afatinib (10 μM), NO-NSAID 0.1 μM): 24% | NO-NSAID response rate % (average) (HUVEC cells; Afatinib (10 μM), NO-NSAID 1 μM): 28% | NO-NSAID response rate % (average) (HUVEC cells; [2]): 69% | NO-NSAID response rate % (average) (HUVEC cells; Afatinib (10 μM), NO-NSAID 500 μM): 22% | NO-NSAID response rate % (average) (HUVEC cells; Cabozantinib (5 μM), NO-NSAID 0.1 μM): 1% | NO-NSAID response rate % (average) (HUVEC cells; Cabozantinib (5 μM), NO-NSAID 1 μM): 15% | NO-NSAID response rate % (average) (HUVEC cells; [3]): 60% | NO-NSAID response rate % (average) (HUVEC cells; Cabozantinib (5 μM), NO-NSAID 500 μM): 24% | NO-NSAID response rate % (average) (HUVEC cells; Dabrafenib (10 μM), NO-NSAID 0.1 μM): 27% | NO-NSAID response rate % (average) (HUVEC cells; Dabrafenib (10 μM), NO-NSAID 1 μM): 28% | NO-NSAID response rate % (average) (HUVEC cells; [4]): 65% | NO-NSAID response rate % (average) (HUVEC cells; Dabrafenib (10 μM), NO-NSAID 500 μM): 31% | NO-NSAID response rate % (average) (HUVEC cells; Everolimus (5 μM), NO-NSAID 0.1 μM): 0% | NO-NSAID response rate % (average) (HUVEC cells; Everolimus (5 μM), NO-NSAID 1 μM): −7% | NO-NSAID response rate % (average) (HUVEC cells; [5]): 28% | NO-NSAID response rate % (average) (HUVEC cells; Everolimus (5 μM), NO-NSAID 500 μM): −2% | activation at 100 µM (HUVEC cells; [2]): 69% | activation at 100 µM (HUVEC cells; Anlotinib (5 μM), NO-NSAID 100 μM): 57% | activation at 100 µM (HUVEC cells; Apatinib (10 μM), NO-NSAID 100 μM): 59% | activation at 100 µM (HUVEC cells; Axitinib (10 μM), NO-NSAID 100 μM): -2% | activation at 100 µM (HUVEC cells; [3]): 60% | activation at 100 µM (HUVEC cells; [4]): 65% | activation at 100 µM (HUVEC cells; Dacomitinib (5 μM), NO-NSAID 100 μM): 75% | activation at 100 µM (HUVEC cells; Encorafenib (5 μM), NO-NSAID 100 μM): 28% | activation at 100 µM (HUVEC cells; Erdafitinib (10 μM), NO-NSAID 100 μM): 43% | activation at 100 µM (HUVEC cells; [5]): 28% | activation at 100 µM (HUVEC cells; Famitinib (5 μM), NO-NSAID 100 μM): 35% | activation at 100 µM (HUVEC cells; Fruquintinib (10 μM), NO-NSAID 100 μM): 37% | activation at 100 µM (HUVEC cells; Gefitinib (10 μM), NO-NSAID 100 μM): 21% | activation at 100 µM (HUVEC cells; [6]): 48% | activation at 100 µM (HUVEC cells; [7]): 62% | activation at 100 µM (HUVEC cells; [8]): 32% | activation at 100 µM (HUVEC cells; [9]): 48% | activation at 100 µM (HUVEC cells; [10]): 83% | activation at 100 µM (HUVEC cells; [11]): 61% | activation at 100 µM (HUVEC cells; [12]): 1% | activation at 100 µM (HUVEC cells; [13]): 44% | activation at 100 µM (HUVEC cells; Vemurafenib (5 μM), NO-NSAID 100 μM): 24% | NO-NSAID response rate % (average) (HUVEC cells; Infigratinib (15 μM), NO-NSAID 0.1 μM): 28% | NO-NSAID response rate % (average) (HUVEC cells; Infigratinib (15 μM), NO-NSAID 1 μM): 30% | NO-NSAID response rate % (average) (HUVEC cells; [6]): 48% | NO-NSAID response rate % (average) (HUVEC cells; Infigratinib (15 μM), NO-NSAID 500 μM): 34% | NO-NSAID response rate % (average) (HUVEC cells; Lapatinib (5 μM), NO-NSAID 0.1 μM): 26% | NO-NSAID response rate % (average) (HUVEC cells; Lapatinib (5 μM), NO-NSAID 1 μM): 35% | NO-NSAID response rate % (average) (HUVEC cells; [7]): 62% | NO-NSAID response rate % (average) (HUVEC cells; Lapatinib (5 μM), NO-NSAID 500 μM): 36% | NO-NSAID response rate % (average) (HUVEC cells; Lenvatinib (10 μM), NO-NSAID 0.1 μM): 11% | NO-NSAID response rate % (average) (HUVEC cells; Lenvatinib (10 μM), NO-NSAID 1 μM): 44% | NO-NSAID response rate % (average) (HUVEC cells; [8]): 32% | NO-NSAID response rate % (average) (HUVEC cells; Lenvatinib (10 μM), NO-NSAID 500 μM): 16% | NO-NSAID response rate % (average) (HUVEC cells; Olmutinib (10 μM), NO-NSAID 0.1 μM): 19% | NO-NSAID response rate % (average) (HUVEC cells; Olmutinib (10 μM), NO-NSAID 1 μM): 34% | NO-NSAID response rate % (average) (HUVEC cells; [9]): 48% | NO-NSAID response rate % (average) (HUVEC cells; Olmutinib (10 μM), NO-NSAID 500 μM): 39% | NO-NSAID response rate % (average) (HUVEC cells; Regorafenib (5 μM), NO-NSAID 0.1 μM): 29% | NO-NSAID response rate % (average) (HUVEC cells; Regorafenib (5 μM), NO-NSAID 1 μM): 46% | NO-NSAID response rate % (average) (HUVEC cells; [10]): 83% | NO-NSAID response rate % (average) (HUVEC cells; Regorafenib (5 μM), NO-NSAID 500 μM): 22% | NO-NSAID response rate % (average) (HUVEC cells; Selumetinib (5 μM), NO-NSAID 0.1 μM): 38% | NO-NSAID response rate % (average) (HUVEC cells; Selumetinib (5 μM), NO-NSAID 1 μM): 42% | NO-NSAID response rate % (average) (HUVEC cells; [11]): 61% | NO-NSAID response rate % (average) (HUVEC cells; Selumetinib (5 μM), NO-NSAID 500 μM): 26% | NO-NSAID response rate % (average) (HUVEC cells; Sorafenib (5 μM), NO-NSAID 0.1 μM): 20% | NO-NSAID response rate % (average) (HUVEC cells; Sorafenib (5 μM), NO-NSAID 1 μM): 20% | NO-NSAID response rate % (average) (HUVEC cells; [12]): 1% | NO-NSAID response rate % (average) (HUVEC cells; Sorafenib (5 μM), NO-NSAID 500 μM): 3% | NO-NSAID response rate % (average) (HUVEC cells; Sunitinib (5 μM), NO-NSAID 0.1 μM): 20% | NO-NSAID response rate % (average) (HUVEC cells; Sunitinib (5 μM), NO-NSAID 1 μM): 40% | NO-NSAID response rate % (average) (HUVEC cells; [13]): 44% | NO-NSAID response rate % (average) (HUVEC cells; Sunitinib (5 μM), NO-NSAID 500 μM): 31% | responders at 0.5 % [1, 14]: 28.6% | responders at 1 % [1, 14]: 50% | responders at 2.5 % [1, 14]: 71.4% | responders at 5 % [1, 14]: 80% | responders at 2.5 % ([1]; 360 h, Apatinib 105 mg/kg once a day, Days 15): 42.9% | responders at 2.5 % ([1]; 360 h, Encorafenib 80 mg/kg once a day, Days 15): 66.7% | responders at 2.5 % ([1]; 360 h, Lapatinib 120 mg/kg twice a day, Days 15): 60% | responders at 2.5 % ([1]; 360 h, Sunitinib 120 mg/kg once a day, Days 15): 57.1% | responders at 2.5 % ([1]; 384 h, Fruquintinib 40 mg/kg once a day, Days 16): 42.9% | responders at 2.5 % ([1]; 432 h, Anlotinib 20 mg/kg once a day, Days 18): 50% | responders at 2.5 % ([1]; 432 h, Axitinib 50 mg/kg once a day, Days 18): 66.7% | responders at 1 % [1, 15]: 42.9% | responders at 2.5 % [1, 15]: 60% | responders at 5 % [1, 15]: 57.1% | responders at 1 % [1, 16]: 28.6% | responders at 2.5 % [1, 16]: 71.4% | responders at 5 % [1, 16]: 71.4% | responders at 1 % [1, 17]: 40% | responders at 2.5 % [1, 17]: 66.7% | responders at 5 % [1, 17]: 50% | responders at 0.5 % [1, 18]: 50% | responders at 1 % [1, 18]: 71.4% | responders at 2.5 % [1, 18]: 71.4% | responders at 5 % [1, 18]: 83.3% | responders at 2.5 % ([1]; 480 h, Erdafitinib 45 mg/kg once a day, Days 20): 57.1% | responders at 2.5 % ([1]; 480 h, Olmutinib 100 mg/kg once a day, Days 20): 66.7%
